Test results as given in PubChem BioAssay AID179 (DTP/NCI, 2004).
Activity calls are given as the source filed them.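 How the source made its calls: active means compounds giving half or more protection of infected cells from virus-caused growth loss, again on retest; inactive means the rest.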 Where a SMILES comes first, the peptide text is derived from it. The star is where a group is joined. Boc = CC(C)(C)OC(=O)*; OBn = c1ccc(CO*)cc1

System: CEM cells HIV-1 protection, formazan growth assay
Assay: NCI AIDS Antiviral Assay
Conditions: for IC50: measured here: growth of uninfected CEM cells
Procedure, shortened: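 Steps: treat uninfected and HIV-1-infected human CEM cells at five drug levels; quantify growth by soluble formazan; retest any compound reaching 50% protection; classify actives from the retest.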

| Compound | EC50 | IC50 | outcome |
| --- | --- | --- | --- |
| CC(=O)c1c(O)cc(O)c(-c2c(C)cc(O)c3c2C(=O)c2cccc(O)c2C3=O)c1O | > 200 µM | 25.7 µM |  |
| Cc1ccc(C(=O)CC2(O)C(=O)Nc3c(C)cc(Cl)cc32)cc1 (configuration not stated) | > 110 µM | > 110 µM |  |
| CC(C)c1cc(OCC(O)CO)cc(C(C)C)c1 (configuration not stated) | > 141 µM | > 141 µM |  |
| OC[C@@H](O)[C@H](O)[C@H](O)[C@@H](O)C1SCCCS1 | > 200 µM | > 200 µM |  |
| C=C1c2nc3ccccc3n2C=C(c2ccc(OC)cc2)N1c1ccc(OC)cc1 | > 200 µM | 33.1 µM |  |
| NC(=O)c1ncn(CCCCCO)c1N | > 200 µM | > 200 µM |  |
| O=C(NCCCN1CC2CCCC2C1)C(C1CCCCC1)C1CCCCC1 (configuration not stated) | > 200 µM | 11.5 µM |  |
| COc1ccc(-c2cc(=O)c3ccc(O)cc3o2)cc1 | > 83.2 µM | > 83.2 µM |  |
| CC(C)CC(NC(=O)OC(C)(C)C)C(=O)NC(CCC(=O)OCc1ccccc1)C(N)=O (stereo not drawn) (Boc-Leu-Glu(OBn)-NH2; configuration not given here) | > 200 µM | 191 µM |  |
| Cc1ccc2c(c1)[nH]c(=S)n2/C=C(/C#N)c1ccc([N+](=O)[O-])cc1 | > 200 µM | > 200 µM |  |
| Cc1cc(=O)[nH]c(NN2C(Cl)C(=O)C2c2c(O)ccc3ccccc23)n1 (configuration not stated) | > 182 µM | 24 µM |  |
| c1ccc2c(c1)[nH]c1c3ccccc3sc21 | > 200 µM | > 200 µM |  |
| CO[C@@H]1C2=CC=CC=C[C@H]2n2c(=O)n(-c3ccccc3)c(=O)n21 | > 162 µM | 81.3 µM |  |
| CCn1c(-c2ccccc2)cs/c1=N\C(P(=O)(O)O)P(=O)(O)O | > 200 µM | > 200 µM |  |
| O=c1oc2ccccc2c(O)c1C=NC(=S)c1ccncc1 | > 200 µM | 182 µM |  |
| C=C1CCC23CC(CC[C@@H]2[C@@]12C[C@@H](c1ccoc1)OC2=O)OC3=O (some centres not stated) | > 79.4 µM | > 79.4 µM |  |
| COC(=O)C1(NC(=O)C(Cc2ccccc2)N(C(=O)OC(C)(C)C)C(=O)OC(C)(C)C)CCCC1 (configuration not stated) | > 200 µM | 110 µM |  |
| CCCCCCCCCCNCCSSCc1ccc(Cl)cc1 |  |  | inactive |
| Cc1ccc(S(=O)(=O)n2cc(/C=C/C#N)c(/C=C/C#N)c2)cc1 |  |  | inactive |
| C=C(C)C(CC=C(C)C)Cc1c(O)cc(OC)c2c1OC(c1ccc(O)cc1O)C(O)C2=O (configuration not stated) | > 200 µM | 29.5 µM |  |
| O=C(O)c1ccc(CS(=O)(=O)c2ccc(Cl)cc2)cc1 | > 794 µM | > 794 µM |  |

| Compound | EC50 | IC50 | outcome |
| --- | --- | --- | --- |
| c1ccc(CNCCCCNCCCNCc2ccccc2)cc1 | > 200 µM | 13.8 µM |  |
| CN(C)C(C(N)=O)c1ccc(Cl)cc1 (configuration not stated) |  |  | inactive |
| COc1ccc2c(c1)NC1(O)c3ccccc3C(=O)C21O (configuration not stated) | > 331 µM | > 331 µM |  |
| COc1cc(/C=C/C(=O)c2sc(-n3nc(-c4ccccc4)cc3-c3ccccc3)nc2C)ccc1O | > 14.5 µM | > 14.5 µM |  |
| c1ccc(-c2csc3n4ccccc4c[n+]23)cc1 |  |  | inactive |
| NC(CSSCC(N)C(=O)NCC(=O)O)C(=O)NCC(=O)O (configuration not stated) | > 708 µM |  |  |
| COc1ccc(-c2cc(NC(=O)c3ccccc3)c(=O)oc2C)cc1 | > 200 µM | > 200 µM |  |
| CCOC(=O)c1[nH]c(Br)c(-c2ccc(Br)cc2)c1Br | > 2 µM | 0.912 µM |  |
| COC(=O)C1Cc2c(C)cccc2C1=O (configuration not stated) | > 200 µM | 110 µM |  |
| CC1=CCCC2C1(C)CCC(C)C2(C)Cc1cc(O)ccc1O (configuration not stated) | > 100 µM | 12 µM |  |
| CN(C)Cc1c[nH]c2nc[nH]c(=O)c12 | > 200 µM | 25.7 µM |  |
| CN(O)C(=S)c1ccccc1 | > 14.8 µM | 0.112 µM |  |
| COc1cc2c3c(n(C)c(=O)c2cc1OC)-c1cc2c(cc1C3=O)OCO2 | > 14.5 µM | 0.891 µM |  |
| CCCC(=O)CC(C)C(=O)C(=O)NC12CC3CC(CC(C3)C1)C2 (configuration not stated) | > 295 µM | > 295 µM |  |
| COC(=O)c1ccc(N2CCOS(=O)OCC2)cc1OC(=O)c1ccccc1 | > 200 µM | 33.1 µM |  |
| CC(=C/c1ccccc1)/C=C1/SC(=S)N(C=C2C(=O)NC(=O)NC2=O)C1=O | > 200 µM | 60.3 µM |  |
| O=C(C1OC1c1cccc([N+](=O)[O-])c1)C12CC3CC(CC(C3)C1)C2 (configuration not stated) | > 200 µM | 3.47 µM |  |
| COC(=O)C1=C(C)NC2=C(C(=O)CCC2)C1CCSC (configuration not stated) |  |  | inactive |
| N#CCC[P+](c1ccccc1)(c1ccccc1)c1ccccc1 | > 200 µM | 55 µM |  |
| CNC(=O)OCC1=CC(=O)C(C)=CC1=O | > 60.3 µM | 5.5 µM |  |
| CC1(C)C2CCC(CN)(C2)C1O (configuration not stated) | > 200 µM | > 200 µM |  |

| Compound | EC50 | IC50 | outcome |
| --- | --- | --- | --- |
| NC(=O)SCC(=O)Nc1ccc2cccc3c2c1CC3 |  |  | inactive |
| Cc1ccc(C(=O)Nc2ccc(S(=O)(=O)[O-])c3cc(S(=O)(=O)[O-])cc(S(=O)(=O)[O-])c23)cc1NC(=O)c1cccc(NC(=O)Nc2cccc(C(=O)Nc3cc(C(=O)Nc4ccc(S(=O)(=O)[O-])c5cc(S(=O)(=O)[O-])cc(S(=O)(=O)[O-])c45)ccc3C)c2)c1.[Ga] | > 759 µM | 42.7 µM |  |
| O=C([O-])C(=O)[N-]CCC[N-]C(=O)C(=O)[N-]CCC[N-]C(=O)C(=O)[O-].[Cu+2].[Cu+2].[Na+] | > 200 µM | 17 µM |  |
| Nc1nc(SC2CCCCC2)nc2c1ncn2C1OC(CO)C(O)C1O (configuration not stated) | > 200 µM | 138 µM |  |
| CCN(CC)CCOc1ccc(S(=O)(=O)c2ccc(OCCN(CC)CC)cc2)cc1 | > 200 µM | 39.8 µM |  |
| NC(N)=NNC(=O)CCn1[nH]c(=O)c(Cl)c(Cl)c1=O | > 813 µM | > 813 µM |  |
| O=c1[nH]c2cc(Cl)ccc2nc1/C(=N\O)C(O)c1ccc([N+](=O)[O-])cc1 (configuration not stated) |  |  | inactive |
| NC(N)=N/N=C/c1c(Cl)nc2sccn12 | > 200 µM | 38 µM |  |
| O=C(O)CC1C(=O)OC2C3COC(=O)c4cc(O)c(O)c(O)c4-c4c(cc(O)c(O)c4O)C(=O)OC2C(OC(=O)c2cc(O)c(O)c4c2C1C(O)C(=O)O4)C(OC(=O)c1cc(O)c(O)c(O)c1)O3 (configuration not stated) | 3.31 µM | 18.6 µM |  |
| NC(N)=NS(=O)(=O)c1ccc(NC(=O)c2ccc3[nH]c4ccccc4c(=O)c3c2)cc1 | > 200 µM | > 200 µM |  |
| Nc1n[n+]([O-])c2cc([N+](=O)[O-])ccc2[n+]1[O-] | > 20 µM | 0.603 µM |  |
| CCOP(=O)(OCC)Oc1ccc(Sc2ccc(OP(=O)(OCC)OCC)cc2)cc1 | > 200 µM | 85.1 µM |  |
| CCOC(=O)/C(O)=C(/C=N\C(=S)Nc1ccccc1Cl)C(=O)OCC | > 200 µM | > 200 µM |  |
| C=C(C)C1CCC(C(=O)O)CC1 (configuration not stated) | > 200 µM | > 200 µM |  |
| CC(=O)OCc1nc2ncnc(N)c2[nH]1 | > 631 µM | > 631 µM |  |
| CCOC(=O)C(=O)NC12CC3CC(CC(C3)C1)C2 | > 724 µM | > 724 µM |  |
| O=C1OCC2Cc3sccc3C(c3ccccc3)=C12 (configuration not stated) | > 97.7 µM | > 97.7 µM |  |
| COc1ccc(/C=C/C(=O)c2cc(CN(C)C)c(O)c(CN(C)C)c2)cc1 | > 200 µM | 40.7 µM |  |
| O=C(c1ccco1)N(C(=S)N1CCN(c2ccccc2)CC1)C1CCCCC1 | > 18.2 µM | 12.6 µM |  |
| O=C1c2ccccc2C(=O)C1C(c1ccc(F)cc1)C1C(=O)c2ccccc2C1=O | > 46.8 µM | 36.3 µM |  |
| C=C1CC2[C@H](C)C(=O)CCC2(C)C2=C1C1CCC(C(C)CCC(=C)C(C)C(=O)O)C1(C)CC2=O (some centres not stated) | > 200 µM | 66.1 µM |  |

| Compound | EC50 | IC50 | outcome |
| --- | --- | --- | --- |
| CN(C)c1ccc2c(c1)-c1cc(N(C)C)ccc1C2=CC=C1C(=O)c2ccccc2C1=O | > 17 µM | > 17 µM |  |
| O=C1OC(C2Cc3ccc4c(c3C2=O)CCC4)c2ccccc21 (configuration not stated) | > 200 µM | 81.3 µM |  |
| Cc1nn(C(=O)Cc2ccccc2)c2c1C(c1ccc([N+](=O)[O-])cc1)SC(N)=N2 (configuration not stated) | 77.6 µM | 117 µM |  |
| CCCCOC(=O)C1CSSCC(NC(C)=O)C(=O)N1 (configuration not stated) | > 200 µM | 112 µM |  |
| C=C(C)[C@]12CC(C)C34OC(/C=C\C=C\CCCCCCCCC)(O[C@@H]1[C@@H]3[C@@H]1O[C@]1(CO)[C@@H](O)[C@]1(O)C(=O)C(C)=C[C@@H]41)O2 (some centres not stated) | > 0.2 µM | 0.00389 µM |  |
| COc1cc(/C=C\C(=O)O)ccc1O | > 200 µM | > 200 µM |  |
| Oc1[nH]c2ccccc2c1N=NC(=S)Nc1cccc(Cl)c1 | > 200 µM | 4.57 µM |  |
| CC(C)[C@@]12O[C@@H]1CC13OC1[C@@H](O)CC[C@@]32O (some centres not stated) | > 200 µM | > 200 µM |  |
| Cc1ccc(NP2(=O)N(Cc3ccc(Cl)cc3)CCCN2Cc2ccc(Cl)cc2)cc1 | > 200 µM | 11 µM |  |
| COc1ccccc1Cc1nc(-c2ccccc2)nn(C2OC(COC(C)=O)C(OC(C)=O)C(OC(C)=O)C2OC(C)=O)c1=S (configuration not stated) |  |  | inactive |
| CC(=O)OCCCCn1cnc2c(Cl)nc(Nc3ccccc3)nc21 | > 200 µM | > 200 µM |  |
| NC(=O)Nc1cc(O)ccc1N=Nc1ccc(S(=O)(=O)Nc2ccccn2)cc1 | > 87.1 µM | > 87.1 µM |  |
| O=NNc1nc(-c2cccnc2)nc2ccccc12 | > 200 µM | > 200 µM |  |
| O=P(Nc1cccc(Cl)c1)(Oc1ccccc1)N(CCCl)CCCl (configuration not stated) | > 17.8 µM | 6.46 µM |  |
| CC(=O)OCC1OC(n2cc(F)c(=O)[nH]c2=O)C(NC(=O)N(CCCl)N=O)C(OC(C)=O)C1OC(C)=O (configuration not stated) | > 457 µM | 66.1 µM |  |
| OCCN(CCO)CN(CO)c1nc(N(CO)CN(CCO)CCO)nc(N(CO)CN(CCO)CCO)n1 | > 437 µM | > 437 µM |  |
| C[n+]1c(-c2ccc(/C=N/NC(=O)c3ccc(C(=O)N/N=C/c4ccc(-c5cn6ccccc6[n+]5C)cc4)cc3)cc2)cn2ccccc21 | > 3.89 µM | 0.0224 µM |  |
| O=S(=O)(N1CCCCN(S(=O)(=O)C(F)(F)F)CCCN(S(=O)(=O)C(F)(F)F)CCCCN(S(=O)(=O)C(F)(F)F)CCCN(S(=O)(=O)C(F)(F)F)CCCCN(S(=O)(=O)C(F)(F)F)CCCN(S(=O)(=O)C(F)(F)F)CCCCN(S(=O)(=O)C(F)(F)F)CCC1)C(F)(F)F | > 200 µM | > 200 µM |  |
| COc1ccc2c(c1)OC(OC)(c1ccc(OC)c(OC)c1)C(O)(OC)C2=O (configuration not stated) | > 200 µM | 11.2 µM |  |
| Cc1oc2c(c(=O)c1C)CN(Cc1ccccc1)CC2 | > 331 µM | 275 µM |  |
